Data from patent US5194645A, “Trans-Pt (IV) compounds” (Johnson Matthey Public Limited Company, priority 1991, dated 1993).

How the values were obtained:
SKOV-3 = experiment: In vitro cytotoxicity (SRB), SKOV-3; assay type: cell-based, human; conditions: SKOV-3, ovarian cancer, 48 to 96 hours
Protocol: (§1) Additional in vitro biological testing was conducted using cell lines derived from human carcinomas and maintained at the Institute of Cancer Research, Sutton, England (see C A Hills & colleagues, Br J Cancer 59, 527-34 (1989)). Monolayer cells were trypsinized and seeded in 96-well microtiter plates at a density of 1×10^4 cells/well in 200 μl of growth medium. Cells were incubated overnight and test compounds were added to triplicate wells at various concentrations for a total of 48 to 96 hours. For toxicity analysis after drug exposure, the cells were fixed with trichloroacetic acid and stained for cellular protein content by incubation for 30 minutes with 0.4% (wt/vol) sulforodamine B (SRB) dissolved in 1% acetic acid. The unbound dye was removed by 1% acetic acid washes, and the bound dye was extracted with 10 mM Tris buffer. The amount of dye in solution was quantified by absorbance at 564 nm.
(§2) In the Tables A and B below, all the cells are ovarian cancer cells with the exception of GCT27^R /GCT27 which are testicular. Table A gives IC50 values in μM; Table B gives Resistance Factors as a ratio of IC50 for a cell line bred to be resistant to cisplatin against IC50 for the nonresistant cell line.

A2780 ®/A2780 = experiment: Resistance factor A2780 ®/A2780; assay type: cell-based, human; conditions: ratio of IC50 resistant to nonresistant line, ovarian
Protocol: as §1, §2

CHI = experiment: In vitro cytotoxicity (SRB), CHI; assay type: cell-based, human; conditions: ovarian cancer, 48 to 96 hours
Protocol: as §1, §2

HX62 = experiment: In vitro cytotoxicity (SRB), HX62; assay type: cell-based, human; conditions: HX62, ovarian cancer, 48 to 96 hours
Protocol: as §1, §2

CHI ® = experiment: In vitro cytotoxicity (SRB), CHI ®; assay type: cell-based, human; conditions: CHI ® (cisplatin resistant), ovarian cancer, 48 to 96 hours
Protocol: as §1, §2

A2780 = experiment: In vitro cytotoxicity (SRB), A2780; assay type: cell-based, human; conditions: A2780, ovarian cancer, 48 to 96 hours
Protocol: as §1, §2

CHI ®/CHI = experiment: Resistance factor CHI ®/CHI; assay type: cell-based, human; conditions: ratio of IC50 resistant to nonresistant line, ovarian
Protocol: as §1, §2

A2780 ® = experiment: In vitro cytotoxicity (SRB), A2780 ®; assay type: cell-based, human; conditions: A2780 ® (cisplatin resistant), ovarian cancer, 48 to 96 hours
Protocol: as §1, §2

41M ® = experiment: In vitro cytotoxicity (SRB), 41M ®; assay type: cell-based, human; conditions: 41M ® (cisplatin resistant), ovarian cancer, 48 to 96 hours
Protocol: as §1, §2

41M = experiment: In vitro cytotoxicity (SRB), 41M; assay type: cell-based, human; conditions: ovarian cancer, 48 to 96 hours
Protocol: as §1, §2

41M ®/41M = experiment: Resistance factor 41M ®/41M; assay type: cell-based, human; conditions: ratio of IC50 resistant to nonresistant line, ovarian
Protocol: as §1, §2

GCT27 ®/GCT27 = experiment: Resistance factor GCT27 ®/GCT27; assay type: cell-based, human; conditions: ratio of IC50 resistant to nonresistant line, testicular
Protocol: as §1, §2

Adj/PC6/iproplatin res = experiment: In vivo Adj/PC6 iproplatin-resistant tumour test in mice
Protocol: (§3) The animals were sacrificed when moribund. The compounds were administered parenterally (ip).

OVCAR-3 [1] = experiment: In vivo OVCAR-3 ovarian carcinoma xenograft; design: species or system mice; conditions: for Growth Delay: delay in doubling of tumour volume vs control
Protocol: The "growth delay" was also measured which represents the delay in achieving a doubling of the tumour volume for the treated group compared to the control group.

PXN/94 = experiment: In vitro cytotoxicity (SRB), PXN/94; assay type: cell-based, human; conditions: PXN/94, ovarian cancer, 48 to 96 hours
Protocol: as §1, §2

Adj/PC6/tetraplatin res = experiment: In vivo Adj/PC6 tetraplatin-resistant tumour test in mice; design: key to ED90: --: indicates 90% inhibition not achieved for doses up to LD50
Protocol: as §3

Adj/PC6/cisplatin res = experiment: In vivo Adj/PC6 cisplatin-resistant tumour test in mice
Protocol: as §3

Adj/PC6 = experiment: In vivo Adj/PC6 tumour test in mice (LD50, ED90, therapeutic index)
Protocol: The Adj/PC6 testing was carried out as described by P M Goddard et al presented in Sixth NCI-EORTC Symposium on New Drugs in Cancer Therapy 1989, which is a development of the basic method described by T A Connors et al, Chem Biol Interact 5, 415(1972). The in vivo L1210 tests were conducted according to the NCI protocol, Cancer Chemotherapy Reports, Part 3, vol 2, (Sept 1972) except that the animals used were DBA/2 mice and that dosing was carried out on days 1, 5 and 9. The animals were sacrificed when moribund. The compounds were administered parenterally (ip).
In the Adj/PC6 testing, LD50 and ED90 values in mg/kg body weight were determined in the conventional manner. The therapeutic index (TI) was calculated as the ratio of LD50 to ED90, and the results are shown below.
Additional tests were carried out in vivo using the compound of Example 2, against sensitive Adj/PC6 tumour cell lines, and against tumour cell lines resistant to various platinum anti-tumour agents, and a TI (Therapeutic Index) calculated, as described above.

L1210 = experiment: In vivo L1210 leukemia, increase in life span; conditions: 9 mg/kg, ip, days 1, 5 and 9, DBA/2 mice
Protocol: as §3
(§4) The compound of Example 2 was tested against L1210 leukemia, and also against a strain of L1210 resistant to cisplatin, in mice, and the increase in life span (ILS) determined against control mice not being administered any active compound, according to the equation, [formula] where T=days survival of treated mice and
(§5) C=days survival of control mice

OVCAR-3 [2] = experiment: In vivo OVCAR-3 ovarian carcinoma xenograft; design: species or system mice; conditions: tumour volume vs control
Resistant L1210 = experiment: In vivo cisplatin-resistant L1210 leukemia, increase in life span; conditions: 9 mg/kg, ip, days 1, 5 and 9, DBA/2 mice, L1210 resistant to cisplatin
Protocol: as §3, §4, §5

[3] = Adj/PC6, comparison with cis-isomer

## [NH2][Pt]([OH])([OH])([Cl])([Cl])[NH]C1CCCC1 [EX 1, trans-[PtCl2 (OH)2 (NH3)(c-C5 H9 NH2)]]
SKOV-3
  IC50: 7 µM
A2780 ®/A2780
  Resistance Factor A2780 ®/A2780: 5.5
CHI
  IC50: 1.15 µM
HX62
  IC50: 10.2 µM
CHI ®
  IC50: 1.9 µM
A2780
  IC50: 0.95 µM
CHI ®/CHI
  Resistance Factor CHI ®/CHI: 1.7
A2780 ®
  IC50: 5.2 µM
41M ®
  IC50: 1.3 µM
41M
  IC50: 1.1 µM
41M ®/41M
  Resistance Factor 41M ®/41M: 1.2

## N.N.[Cl][Pt][Cl] [Cisplatin, cis-[PtCl2 (NH3)2], reference compound]
A2780 ®/A2780
  Resistance Factor A2780 ®/A2780: 15.7
CHI ®/CHI
  Resistance Factor CHI ®/CHI: 6.4
GCT27 ®/GCT27
  Resistance Factor GCT27 ®/GCT27: 6.2
41M ®/41M
  Resistance Factor 41M ®/41M: 4.7

## [NH2][Pt]([OH])([OH])([Cl])([Cl])[NH]Cc1ccccc1 [B, t[PtCl2 (OH2)NH3 (PhCH2 NH2)]]
SKOV-3
  IC50: 8.2 µM
A2780 ®/A2780
  Resistance Factor A2780 ®/A2780: 4.0
CHI
  IC50: 1.12 µM
HX62
  IC50: 10.2 µM
CHI ®
  IC50: 1.95 µM
A2780
  IC50: 1.06 µM
CHI ®/CHI
  Resistance Factor CHI ®/CHI: 1.7
A2780 ®
  IC50: 4.2 µM
41M ®
  IC50: 1.35 µM
41M
  IC50: 1.3 µM
41M ®/41M
  Resistance Factor 41M ®/41M: 1.0

## [NH2][Pt]([OH])([OH])([Cl])([Cl])[NH]C1CCCCC1 [EX 2, trans-[PtCl2 (OH)2 (NH3)(c-C6H11 NH2)]]
SKOV-3
  IC50: 8.8 µM
A2780 ®/A2780
  Resistance Factor A2780 ®/A2780: 7.1
Adj/PC6/iproplatin res
  ED90: 2.6 mg/kg
  LD50: 8.8 mg/kg
  TI (Therapeutic Index): 3.4
CHI
  IC50: 1.4 µM
HX62
  IC50: 5.9 µM
CHI ®
  IC50: 2.2 µM
OVCAR-3 [1]; 1 mg/kg
  Growth Delay: 0.9 days
OVCAR-3 [1]; 2 mg/kg
  Growth Delay: 12.0 days
OVCAR-3 [1]; 4 mg/kg
  Growth Delay: 16.8 days
OVCAR-3 [1]; increasing doses
  dose-related effect (OVCAR-3 xenograft): clear dose-related effect
PXN/94
  IC50: 3.7 µM
Adj/PC6/tetraplatin res
  ED90: --
  LD50: 8.8 mg/kg
Adj/PC6/cisplatin res
  ED90: 5.6 mg/kg
  LD50: 10.5 mg/kg
  TI (Therapeutic Index): 1.88
Adj/PC6; [3]
  ED90: 0.76 mg/kg
  TI (Therapeutic Index): 11.6
Adj/PC6; Adj/PC6 testing, mice, ip
  ED90: 0.76 mg/kg body weight
  LD50: 8.8 mg/kg body weight
  TI (therapeutic index, ratio of LD50 to ED90): 11.6
Adj/PC6; sensitive and platinum-resistant Adj/PC6 tumours
  activity compared with the cis isomer: possesses activity, and a different spectrum of activity to the cis isomer
L1210
  ILS (increase in life span): 77%
CHI ®/CHI
  Resistance Factor CHI ®/CHI: 1.6
41M ®
  IC50: 1.8 µM
41M
  IC50: 1.5 µM
GCT27 ®/GCT27
  Resistance Factor GCT27 ®/GCT27: 1.8
OVCAR-3 [2]; 1 mg/kg
  T/C (day 28): 0.80
OVCAR-3 [2]; 2 mg/kg
  T/C (day 28): 0.64
OVCAR-3 [2]; 4 mg/kg
  T/C (day 28): 0.48
41M ®/41M
  Resistance Factor 41M ®/41M: 1.2
Resistant L1210
  ILS (increase in life span): 39%
